Data: patent US20260206753A1, “HERBICIDAL DERIVATIVES” (SYNGENTA CROP PROTECTION AG, priority 2022, published 2026)

Assays:
Type in all cases: in vivo
[1] = test system: Amaranthus palmeri (AMAPA); test: Pre-emergence herbicide test, glasshouse pots; conditions: 1000 g/ha, evaluated after 13 days
[2] = test system: Setaria faberi (SETFA); test: Post-emergence herbicide test, glasshouse pots; conditions: sprayed after 8 days cultivation, 1000 g/ha, evaluated after 13 days
Protocol: (§1) Seeds of a variety of test species are sown in standard soil in pots (Setaria faberi (SETFA), Echinochloa crus-galli (ECHCG), Ipomoea hederacea (IPOHE), Amaranthus palmeri (AMAPA), Zea mays (ZEAMX), Amaranthus retoflexus (AMARE), Solanum nigrum (SOLNI), Lolium perenne (LOLPE), Abutilon theophrasti (ABUTH)). After 8 days cultivation under controlled conditions in a glasshouse (at 24° C./16° C., day/night; 14 hours light; 65% humidity), the plants are sprayed with an aqueous spray solution derived from the formulation of the technical active ingredient in acetone/water (50:50) solution containing 0.5% Tween 20 (polyoxyethelyene sorbitan monolaurate, CAS RN 9005-64-5). Compounds are applied at 1000 g/ha unless otherwise stated. The test plants are then grown in a glasshouse under controlled conditions in a glasshouse (at 24° C./16° C., day/night; 14 hours light; 65% humidity) and watered twice daily. After 13 days the test is evaluated for the percentage damage caused to the plant. The biological activities are shown in the following table on a five-point scale (5=81-100%; 4=61-80%; 3=41-60%; 2=21-40%; 1=0-20%).

[3] = test system: Echinochloa crus-galli (ECHCG); test: Post-emergence herbicide test, glasshouse pots; conditions: sprayed after 8 days cultivation, 1000 g/ha, evaluated after 13 days
Protocol: as §1

[4] = test system: Amaranthus palmeri (AMAPA); test: Post-emergence herbicide test, glasshouse pots; conditions: sprayed after 8 days cultivation, 1000 g/ha, evaluated after 13 days
Protocol: as §1

[5] = test system: Amaranthus retoflexus (AMARE); test: Post-emergence herbicide test, glasshouse pots; conditions: sprayed after 8 days cultivation, 1000 g/ha, evaluated after 13 days
Protocol: as §1

[6] = test system: Ipomoea hederacea (IPOHE); test: Post-emergence herbicide test, glasshouse pots; conditions: sprayed after 8 days cultivation, 1000 g/ha, evaluated after 13 days
Protocol: as §1

[7] = test system: Zea mays (ZEAMX); test: Post-emergence herbicide test, glasshouse pots; conditions: sprayed after 8 days cultivation, 1000 g/ha, evaluated after 13 days
Protocol: as §1

[8] = test system: Zea mays (ZEAMX); test: Pre-emergence herbicide test, glasshouse pots; conditions: 1000 g/ha, evaluated after 13 days
[9] = test system: Setaria faberi (SETFA); test: Pre-emergence herbicide test, glasshouse pots; conditions: 1000 g/ha, evaluated after 13 days
[10] = test system: Amaranthus retoflexus (AMARE); test: Pre-emergence herbicide test, glasshouse pots; conditions: 1000 g/ha, evaluated after 13 days
[11] = test system: Echinochloa crus-galli (ECHCG); test: Pre-emergence herbicide test, glasshouse pots; conditions: 1000 g/ha, evaluated after 13 days
[12] = test system: Ipomoea hederacea (IPOHE); test: Pre-emergence herbicide test, glasshouse pots; conditions: 1000 g/ha, evaluated after 13 days

| SMILES | AMAPA, percentage damage caused to the plant (five-point scale) [1] | SEFTA, percentage damage caused to the plant (five-point scale) [2] | ECHCG, percentage damage caused to the plant (five-point scale) [3] | AMAPA, percentage damage caused to the plant (five-point scale) [4] | AMARE, percentage damage caused to the plant (five-point scale) [5] | IPOHE, percentage damage caused to the plant (five-point scale) [6] | ZEAMX, percentage damage caused to the plant (five-point scale) [7] | ZEAMX, percentage damage caused to the plant (five-point scale) [8] | SEFTA, percentage damage caused to the plant (five-point scale) [9] | AMARE, percentage damage caused to the plant (five-point scale) [10] | ECHCG, percentage damage caused to the plant (five-point scale) [11] | IPOHE, percentage damage caused to the plant (five-point scale) [12] |
| --- | --- | --- | --- | --- | --- | --- | --- | --- | --- | --- | --- | --- |
| CCn1cc(-c2cc(C(=O)OC(C)C)ccc2F)c(=O)c(C(=O)O)c1-c1ccc(Cl)c(Cl)c1 [Compound 8, 2-(3,4-dichlorophenyl)-1-ethyl-5-(2-fluoro-5-isopropoxycarbonyl-phenyl)-4-oxo-pyridine-3-carboxylic acid] | 5 (5=81-100%) | 4 (4=61-80%) | 3 (3=41-60%) | 3 (3=41-60%) | 3 (3=41-60%) | 3 (3=41-60%) | 3 (3=41-60%) | 1 (1=0-20%) | 5 (5=81-100%) | 3 (3=41-60%) | 5 (5=81-100%) | 1 (1=0-20%) |
| CCn1cc(-c2cccc(OC(F)(F)F)c2F)c(=O)c(C(=O)O)c1-c1ccc(Cl)c(Cl)c1 [Compound 11, 2-(3,4-dichlorophenyl)-1-ethyl-5-[2-fluoro-3-(trifluoromethoxy)phenyl]-4-oxo-pyridine-3-carboxylic acid] | 2 (2=21-40%) | 2 (2=21-40%) | 4 (4=61-80%) | 4 (4=61-80%) | 4 (4=61-80%) | 3 (3=41-60%) | 1 (1=0-20%) | 0 | 3 (3=41-60%) | 2 (2=21-40%) | 3 (3=41-60%) | 3 (3=41-60%) |
| CCn1cc(-c2cc(C(=O)OC(C)C)c(Cl)cc2F)c(=O)c(C(=O)O)c1-c1ccc(Cl)c(Cl)c1 [Compound 6, 5-(4-chloro-2-fluoro-5-isopropoxycarbonyl-phenyl)-2-(3,4-dichlorophenyl)-1-ethyl-4-oxo-pyridine-3-carboxylic acid] | 5 (5=81-100%) | 5 (5=81-100%) | 5 (5=81-100%) | 5 (5=81-100%) | 5 (5=81-100%) | 3 (3=41-60%) | 4 (4=61-80%) | 5 (5=81-100%) | 5 (5=81-100%) | 5 (5=81-100%) | 5 (5=81-100%) | 4 (4=61-80%) |
| CCn1cc(-c2cc(OC(F)(F)F)ccc2F)c(=O)c(C(=O)O)c1-c1ccc(Cl)c(Cl)c1 [Compound 5, 2-(3,4-dichlorophenyl)-1-ethyl-5-[2-fluoro-5-(trifluoromethoxy)phenyl]-4-oxo-pyridine-3-carboxylic acid] | 4 (4=61-80%) | 4 (4=61-80%) | 4 (4=61-80%) | 4 (4=61-80%) | 4 (4=61-80%) | 4 (4=61-80%) | 4 (4=61-80%) | 4 (4=61-80%) | 5 (5=81-100%) | 3 (3=41-60%) | 5 (5=81-100%) | 4 (4=61-80%) |
| CCn1cc(-c2cc(OC(F)(F)F)ccc2Cl)c(=O)c(C(=O)O)c1-c1ccc(Cl)c(Cl)c1 [Compound 7, 5-[2-chloro-5-(trifluoromethoxy)phenyl]-2-(3,4-dichlorophenyl)-1-ethyl-4-oxo-pyridine-3-carboxylic acid] | 3 (3=41-60%) | 5 (5=81-100%) | 4 (4=61-80%) | 4 (4=61-80%) | 4 (4=61-80%) | 3 (3=41-60%) | 3 (3=41-60%) | 3 (3=41-60%) | 5 (5=81-100%) | 4 (4=61-80%) | 4 (4=61-80%) | 1 (1=0-20%) |
| CCn1cc(-c2ccc(Cl)cc2)c(=O)c(C(=O)O)c1-c1ccc(Cl)c(Cl)c1 [Compound 1, 5-(4-chlorophenyl)-2-(3,4-dichlorophenyl)-1-ethyl-4-oxo-pyridine-3-carboxylic acid] | 1 (1=0-20%) | 4 (4=61-80%) | 4 (4=61-80%) | 3 (3=41-60%) | 3 (3=41-60%) | 3 (3=41-60%) | 3 (3=41-60%) | 1 (1=0-20%) | 5 (5=81-100%) | 0 | 5 (5=81-100%) | 3 (3=41-60%) |
| CCn1cc(-c2ccc(Cl)cc2F)c(=O)c(C(=O)O)c1-c1ccc(Cl)c(Cl)c1 [Compound 2, 5-(4-chloro-2-fluoro-phenyl)-2-(3,4-dichlorophenyl)-1-ethyl-4-oxo-pyridine-3-carboxylic acid] | 5 (5=81-100%) | 4 (4=61-80%) | 4 (4=61-80%) | 5 (5=81-100%) | 4 (4=61-80%) | 3 (3=41-60%) | 4 (4=61-80%) | 3 (3=41-60%) | 5 (5=81-100%) | 1 (1=0-20%) | 5 (5=81-100%) | 3 (3=41-60%) |
